The values that follow come from ChEMBL document CHEMBL5325448, “Design, synthesis and biological evaluation of phosphoroxy quinazoline derivatives as potential EGFRT790M/C797S inhibitors” (Bioorg Med Chem, 2023).

Where only a bound is given, the exact number is not on record here.

Series [1] deals with Epidermal growth factor receptor (Homo sapiens, UniProt P00533, C797S/EX19DEL/T790M). Description: Inhibition of EGFR Del19/T790M/C797S triple mutant (unknown origin) using TK as substrate incubated for 120 mins in presence of ATP by HTRF assay. On the technique in general: In TR-FRET formats the signal depends on donor and acceptor labels being close together.
A short description of series [2]: Cytotoxicity against mouse Ba/F3 EGFR-Del19/T790M/C797S cells assessed as cell growth inhibition measured after 72 hrs by CellTiter-Glo luminescent assay. In kind it is functional, cell-based.
Series [3] in a line: Cmax in BALB/c mouse at 5 mg/kg, po measured upto 24 hrs by LC-MS/MS analysis. In kind it is ADME, organism-based. Also on record: dose 5 mg/kg, time < 24 hrs, route po. To be noted: in vivo.
A short description of series [4]: AUC (0 to t) in BALB/c mouse at 5 mg/kg, po measured upto 24 hrs by LC-MS/MS analysis. In kind it is ADME, organism-based. Also on record: time < 24 hrs, dose 5 mg/kg, route po. To be noted: in vivo.
Series [5] in a line: AUC (0 to infinity) in BALB/c mouse at 5 mg/kg, po measured upto 24 hrs by LC/MS-MS analysis. In kind it is ADME, organism-based. Details: time < 24 hrs, dose 5 mg/kg, route po. The note with it: in vivo.
Series [6] is described as follows: Antitumor activity against mouse Ba/F3 EGFR-Del19/T790M/C797S cells xenografted in BALB/c nude mouse assessed as tumor growth inhibition at 30 mg/kg, po administered once a day for 14 consecutive days and measured twice a week relative to control. In kind it is functional. To be noted: 336 h, time 14 day, read-out: TGI.
Series [7] in a line: Half life in BALB/c mouse at 5 mg/kg, po measured upto 24 hrs by LC/MS-MS analysis. The note with it: in vivo. In kind it is ADME, organism-based.
Series [8] is described as follows: MRT in BALB/c mouse at 5 mg/kg, po measured upto 24 hrs by LC-MS/MS analysis. Format: ADME, organism-based. To be noted: in vivo.
Series [9] deals with PC-9. Description: Antitumor activity against human PC-9 cells harboring EGFR Del19/T790M/C797S triple mutant xenografted in NOD/SCID mouse assessed as tumor growth inhibition at 15 mg/kg, po administered once a day for 21 consecutive days and measured twice a week relative to control. The note with it: PC-9, 504 h, time 21 day, read-out: TGI. In kind it is functional.
For series [10], the system named is PC-9. In words: Antitumor activity against human PC-9 cells harboring EGFR Del19/T790M/C797S triple mutant xenografted in NOD/SCID mouse assessed as tumor growth inhibition at 30 mg/kg, po administered once a day for 21 consecutive days and measured twice a week relative to control. In kind it is functional. The note with it: PC-9, 504 h, time 21 day, read-out: TGI.

A short description of series [11]: Antitumor activity against mouse Ba/F3 EGFR-Del19/T790M/C797S cells xenografted in BALB/c nude mouse assessed as tumor growth inhibition at 15 mg/kg, po administered once a day for 14 consecutive days and measured twice a week relative to control. In kind it is functional. The note with it: 336 h, time 14 day, read-out: TGI.
Series [12] concerns the target Epidermal growth factor receptor (Homo sapiens, UniProt P00533, C797S/L858R/T790M). Description: Inhibition of EGFR L858R/T790M/C797S triple mutant (unknown origin) using TK as substrate incubated for 120 mins in presence of ATP by HTRF assay.
Series [13] addresses Epidermal growth factor receptor (Homo sapiens, UniProt P00533). In words: Inhibition of wild type EGFR (unknown origin) using TK as substrate incubated for 120 mins in presence of ATP by HTRF assay.
Another series has as its system A-431. Description: Cytotoxicity against human A-431 cells assessed as cell growth inhibition incubated for 72 hrs by CellTiter-Glo luminescent assay. The note with it: A-431, 72 h. Format: functional, cell-based.

Epidermal growth factor receptor (Homo sapiens, UniProt P00533, C797S/EX19DEL/T790M), sequence (P00533 whole entry, looked up, stated change not applied): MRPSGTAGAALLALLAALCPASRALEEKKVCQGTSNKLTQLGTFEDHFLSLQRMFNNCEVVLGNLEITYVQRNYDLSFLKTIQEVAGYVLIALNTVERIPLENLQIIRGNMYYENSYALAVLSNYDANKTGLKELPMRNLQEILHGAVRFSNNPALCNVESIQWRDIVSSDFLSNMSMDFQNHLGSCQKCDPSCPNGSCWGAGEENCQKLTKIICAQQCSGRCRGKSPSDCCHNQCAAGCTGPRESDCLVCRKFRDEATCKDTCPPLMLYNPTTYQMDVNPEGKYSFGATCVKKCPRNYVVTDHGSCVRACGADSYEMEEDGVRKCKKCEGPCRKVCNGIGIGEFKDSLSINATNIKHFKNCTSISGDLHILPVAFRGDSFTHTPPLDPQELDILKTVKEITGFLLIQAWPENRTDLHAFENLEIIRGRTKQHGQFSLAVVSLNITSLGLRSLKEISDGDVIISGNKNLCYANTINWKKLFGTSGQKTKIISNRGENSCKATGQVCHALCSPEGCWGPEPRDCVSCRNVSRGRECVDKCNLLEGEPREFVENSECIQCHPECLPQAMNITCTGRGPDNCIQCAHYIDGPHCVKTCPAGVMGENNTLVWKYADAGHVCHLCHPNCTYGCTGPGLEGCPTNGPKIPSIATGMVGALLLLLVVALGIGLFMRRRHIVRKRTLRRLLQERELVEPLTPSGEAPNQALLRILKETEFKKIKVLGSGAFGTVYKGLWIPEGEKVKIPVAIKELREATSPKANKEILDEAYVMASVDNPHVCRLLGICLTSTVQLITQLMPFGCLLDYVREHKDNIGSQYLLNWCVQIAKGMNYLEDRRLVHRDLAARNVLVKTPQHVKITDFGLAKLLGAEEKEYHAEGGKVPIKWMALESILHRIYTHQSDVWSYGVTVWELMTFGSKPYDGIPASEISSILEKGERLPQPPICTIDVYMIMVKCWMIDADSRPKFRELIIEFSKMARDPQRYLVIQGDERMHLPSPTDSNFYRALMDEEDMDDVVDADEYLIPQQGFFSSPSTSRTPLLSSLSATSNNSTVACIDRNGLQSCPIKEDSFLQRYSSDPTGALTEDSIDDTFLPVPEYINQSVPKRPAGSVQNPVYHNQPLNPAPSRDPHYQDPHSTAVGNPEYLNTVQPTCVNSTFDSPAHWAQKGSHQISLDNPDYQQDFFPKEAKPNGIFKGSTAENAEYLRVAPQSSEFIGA
Epidermal growth factor receptor (Homo sapiens, UniProt P00533), sequence (P00533 whole entry): as the sequence (P00533 whole entry, looked up, stated change not applied) above
Epidermal growth factor receptor (Homo sapiens, UniProt P00533, C797S/L858R/T790M), sequence (P00533 25-1210 T790M/C797S/L858R limits assumed): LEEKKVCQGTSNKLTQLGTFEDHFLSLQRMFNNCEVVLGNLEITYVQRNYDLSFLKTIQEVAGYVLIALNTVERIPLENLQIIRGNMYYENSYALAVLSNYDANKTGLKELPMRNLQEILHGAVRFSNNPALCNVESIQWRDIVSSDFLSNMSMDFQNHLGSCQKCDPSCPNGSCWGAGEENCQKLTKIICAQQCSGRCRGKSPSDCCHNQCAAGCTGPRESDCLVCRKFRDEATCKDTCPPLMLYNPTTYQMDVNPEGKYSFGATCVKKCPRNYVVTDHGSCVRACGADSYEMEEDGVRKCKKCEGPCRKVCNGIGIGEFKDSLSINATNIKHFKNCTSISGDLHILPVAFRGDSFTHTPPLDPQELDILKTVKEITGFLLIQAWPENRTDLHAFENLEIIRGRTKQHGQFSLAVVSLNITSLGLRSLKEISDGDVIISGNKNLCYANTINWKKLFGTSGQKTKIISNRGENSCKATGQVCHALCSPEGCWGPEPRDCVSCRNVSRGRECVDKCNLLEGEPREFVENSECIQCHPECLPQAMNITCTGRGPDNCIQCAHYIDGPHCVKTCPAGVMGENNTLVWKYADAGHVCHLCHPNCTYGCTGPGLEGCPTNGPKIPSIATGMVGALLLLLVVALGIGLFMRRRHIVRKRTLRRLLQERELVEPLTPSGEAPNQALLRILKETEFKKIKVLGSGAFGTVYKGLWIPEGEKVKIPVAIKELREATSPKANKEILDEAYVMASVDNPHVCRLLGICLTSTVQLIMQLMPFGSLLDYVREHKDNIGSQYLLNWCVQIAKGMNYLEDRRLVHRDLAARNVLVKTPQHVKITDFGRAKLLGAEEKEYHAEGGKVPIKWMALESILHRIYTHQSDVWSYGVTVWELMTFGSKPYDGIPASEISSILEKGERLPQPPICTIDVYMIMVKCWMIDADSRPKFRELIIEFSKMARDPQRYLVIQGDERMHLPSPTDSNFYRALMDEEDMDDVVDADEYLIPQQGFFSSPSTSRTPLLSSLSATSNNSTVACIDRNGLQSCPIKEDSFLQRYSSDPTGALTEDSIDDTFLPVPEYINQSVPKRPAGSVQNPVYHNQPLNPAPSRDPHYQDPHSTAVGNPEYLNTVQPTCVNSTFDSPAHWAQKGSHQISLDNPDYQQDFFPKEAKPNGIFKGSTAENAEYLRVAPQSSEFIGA

Consider `CCOC1CN(C2CCN(c3cc(OC)c(Nc4ncc(Br)c(Nc5ccc6nccnc6c5P(C)(C)=O)n4)cc3C)CC2)C1`, for which the IC50 was determined as 0.65 nM in series [1] and 29 nM in series [2].

Consider `CCc1cc(Nc2ncc(Br)c(Nc3ccc4nccnc4c3P(C)(C)=O)n2)c(OC)cc1N1CCC(N2CC(N(C)C)C2)CC1`, for which the figures for the concentration for half-maximal inhibition (IC50) in series [1] and in series [2] were 0.11 nM and 16.3 nM, respectively.

Turning to `COc1cc(N2CCC(N3CC(N(C)C)C3)CC2)c(C)cc1Nc1ncc(Br)c(Nc2ccc3nccnc3c2P(C)(C)=O)n1`, the IC50 in [1] is 0.06 nM; in [2], 12.7 nM. For the same compound, the Cmax in series [3] is 1570 ng/mL. Moreover, in series [4], the area under the curve AUC(0-t) at 24 h came to 15400 ng·h/mL. For the same compound, in [5], the AUC(0-inf) came out at 15600 ng·h/mL. Besides, the inhibition in vivo at 30 mg/kg in series [6] was determined as 82.6%; with PC-9 [10], 46.8%. Besides, the half-life in series [7] is 3.5 h. In series [8], the MRT was 6 h. Further, the inhibition in vivo at 15 mg/kg in the series on PC-9 [9] stood at 21.6%; in series [11], 48.4%.

With `COc1cc(N2CCC(N3CC(C)(CO)C3)CC2)c(C)cc1Nc1ncc(Br)c(Nc2ccc3nccnc3c2P(C)(C)=O)n1`, the figures for the IC50 in series [12], in [1] and in [2] were 0.15 nM, 0.06 nM and 17.7 nM, respectively.

For the compound `COc1cc(N2CCC(N3CC(N(C)C)C3)CC2)c(C)cc1Nc1ncc(Cl)c(Nc2ccc3nccnc3c2P(C)(C)=O)n1`, the 50% inhibitory concentration (IC50) in [12] amounted to 0.12 nM; in series [1], 0.25 nM; in series [2], 16.3 nM.

With `COc1cc(N2CCC(N3CC(CC#N)C3)CC2)c(C)cc1Nc1ncc(Br)c(Nc2ccc3nccnc3c2P(C)(C)=O)n1`, the IC50 stood at 0.12 nM in [12], 0.33 nM in series [1], 461 nM in series [13] and 12.7 nM in series [2]. This compound gave a Cmax in series [3] of 1270 ng/mL. The same compound returned an AUC(0-t) at 24 h in series [4] of 11200 ng·h/mL. Moreover, the AUC(0-inf) in series [5] was determined as 11200 ng·h/mL. In [7], the half-life is 3.1 h. Further, in series [8], the MRT is 5.12 h.

For the compound `COc1cc(N2CCC(N3CC(C(C)(C)O)C3)CC2)c(C)cc1Nc1ncc(Br)c(Nc2ccc3nccnc3c2P(C)(C)=O)n1`, the results for the IC50 in series [12], in [1] and in series [2] were 0.15 nM, 0.07 nM and 18 nM, respectively.

Regarding `COc1cc(N2CCC(N3CC(F)(CO)C3)CC2)c(C)cc1Nc1ncc(Br)c(Nc2ccc3nccnc3c2P(C)(C)=O)n1`, the IC50 in series [12] is 0.1 nM; in series [1] it was 0.13 nM; in series [13], over 500 nM; in series [2], 18.7 nM; with A-431, 808 nM. The concentration in [3] peaked (Cmax) at 1730 ng/mL. In addition, the AUC(0-t) at 24 h in [4] worked out at 16900 ng·h/mL. Moreover, the AUC(0-inf) in [5] was determined as 17000 ng·h/mL. The same compound had a half-life in [7] of 3.7 h. The same compound showed an MRT in [8] of 6.3 h.

For the compound `CCc1cc(Nc2ncc(Cl)c(Nc3ccc4nccnc4c3P(C)(C)=O)n2)c(OC)cc1N1CCC(N2CC(N(C)C)C2)CC1`, the IC50 in series [12] is 0.4 nM; in series [1] it was 0.61 nM; in [13], over 500 nM; in series [2], 29.7 nM.

For the compound `COCC1(C)CN(C2CCN(c3cc(OC)c(Nc4ncc(Br)c(Nc5ccc6nccnc6c5P(C)(C)=O)n4)cc3C)CC2)C1`, the IC50 in [12] was 0.81 nM; in [1], 0.3 nM; in series [13], over 500 nM; in [2], 22.3 nM.

With `COc1cc(N2CCC(N3C[C@H]4COC[C@H]4C3)CC2)c(C)cc1Nc1ncc(Br)c(Nc2ccc3nccnc3c2P(C)(C)=O)n1`, the IC50 in [12] is 0.12 nM; in series [2], 11 nM; in the series on A-431 it was 425 nM. This compound displayed a Cmax in [3] of 1360 ng/mL. Also, the AUC(0-t) at 24 h in series [4] amounted to 11200 ng·h/mL. This compound gave an AUC(0-inf) in series [5] of 11200 ng·h/mL. This compound gave a half-life in series [7] of 3.3 h. In [8], this compound showed an MRT of 5.6 h.

As to `COc1cc(N2CCC(N3CCN(C(C)=O)CC3)CC2)c(C)cc1Nc1ncc(Br)c(Nc2ccc3nccnc3c2P(C)(C)=O)n1`, the IC50 was 0.12 nM in series [12]; 0.07 nM in series [1]; 500 nM in series [13]; 17.7 nM in series [2]; 578 nM with A-431.

As for `CCc1cc(Nc2ncc(C(F)(F)F)c(Nc3ccc4nccnc4c3P(C)(C)=O)n2)c(OC)cc1N1CCC(N2CC(N(C)C)C2)CC1`, the IC50 in series [2] turned out to be 54 nM; in the series on A-431 it was 547 nM.

Regarding `COc1cc(N2CCC(N3CC[C@@H](N(C)C)C3)CC2)c(C)cc1Nc1ncc(Br)c(Nc2ccc3nccnc3c2P(C)(C)=O)n1`, the IC50 in series [12] was found to be 0.13 nM; in [2] it was 9 nM.

`COc1cc(N2CCC(N3CC(N(C)C)C3)CC2)c(C)cc1Nc1ncc(SC)c(Nc2ccc3nccnc3c2P(C)(C)=O)n1`: the IC50 was determined as 0.05 nM in [12], 0.39 nM in series [1] and 19.7 nM in series [2].

With `COCC1CN(C2CCN(c3cc(OC)c(Nc4ncc(Br)c(Nc5ccc6nccnc6c5P(C)(C)=O)n4)cc3C)CC2)C1`, the IC50 in series [12] was 0.06 nM; in [1], 0.69 nM; in series [2], 15 nM.

For `COc1cc(N2CCC(N3CC(CO)C3)CC2)c(C)cc1Nc1ncc(Br)c(Nc2ccc3nccnc3c2P(C)(C)=O)n1`, the IC50 came to 0.34 nM in [12], 0.57 nM in [1], 590 nM in [13] and 41 nM in series [2].

`COc1cc(N2CCC(N(C)CCN(C)C)CC2)c(C)cc1Nc1ncc(Br)c(Nc2ccc3nccnc3c2P(C)(C)=O)n1`: the IC50 was 0.15 nM in series [12], 0.06 nM in series [1], 16 nM in series [2] and 406 nM in the series on A-431.

In the case of `COc1cc(N2CCC(N3CCN(C)CC3)CC2)ccc1Nc1ncc(Cl)c(Nc2ccccc2P(C)(C)=O)n1` [BRIGATINIB], the 50% inhibitory concentration (IC50) in [2] came to 433 nM. This compound returned a Cmax in series [3] of 927 ng/mL. In series [4], this compound yielded an exposure AUC(0-t) at 24 h of 6490 ng·h/mL. The total exposure AUC(0-inf) in series [5] turned out to be 6500 ng·h/mL. The half-life in series [7] is 2.8 h.

What is called IC50 is the concentration at which inhibition is half-maximal. In general, Cmax refers to the peak of the concentration-time curve. What is called AUC(0-t) is exposure summed from dosing to a finite time, without extrapolation to infinity. Low values mean less exposure, high ones more exposure. Broadly, the AUC(0-inf) is total exposure, with the tail of the curve extrapolated. High values mean more exposure, low ones less exposure. By half-life is commonly meant the time in which the quantity being followed falls by half. As a reminder, the MRT is the average time that molecules of a dose stay in the body.
